Results published in PubChem BioAssay AID2060912 (Molecular Pharmacology Branch, DTP, NCI, 2025).

Tested on: HUVEC/MSC spheroids viability
Assay: Human HUVEC/MSC cell line growth inhibition [KRAS2];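 on viability, T/C: percent of DMSO vehicle control luminescence so 100% = untreated viability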
Conditions: for IC50: curve of first compound; for viability, T/C: stronger effect = lower value; active means viability on the fitted dose curve at most 10% of control; inactive means the rest
How it was run: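 Endothelial cells (HUVEC) plus mesenchymal stem cells, cultured at 37 °C/5% CO2 and assembled into spheroids without cancer cells, served as a stromal control. Drug pairs and single agents spanned half-log ranges anchored to clinical Cmax.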

[1] = second compound 0.0316 µM, first compound 0.0316 µM
[2] = second compound 0.0316 µM, first compound 0.1 µM
[3] = second compound 0.0316 µM, first compound 0.316 µM
[4] = second compound 0.0316 µM, first compound 1 µM
[5] = second compound 0.0316 µM, first compound 3.16 µM
[6] = second compound 0.0316 µM, first compound 10 µM
[7] = second compound 0.1 µM, first compound 0.0316 µM
[8] = second compound 0.1 µM, first compound 0.1 µM
[9] = second compound 0.1 µM, first compound 0.316 µM
[10] = second compound 0.1 µM, first compound 1 µM
[11] = second compound 0.1 µM, first compound 3.16 µM
[12] = second compound 0.1 µM, first compound 10 µM
[13] = second compound 0.316 µM, first compound 0.0316 µM
[14] = second compound 0.316 µM, first compound 0.1 µM
[15] = second compound 0.316 µM, first compound 0.316 µM
[16] = second compound 0.316 µM, first compound 1 µM
[17] = second compound 0.316 µM, first compound 3.16 µM
[18] = second compound 0.316 µM, first compound 10 µM
[19] = second compound 1 µM, first compound 0.0316 µM
[20] = second compound 1 µM, first compound 0.1 µM
[21] = second compound 1 µM, first compound 0.316 µM
[22] = second compound 1 µM, first compound 1 µM
[23] = second compound 1 µM, first compound 3.16 µM
[24] = second compound 1 µM, first compound 10 µM
[25] = second compound 3.16 µM, first compound 0.0316 µM
[26] = second compound 3.16 µM, first compound 0.1 µM
[27] = second compound 3.16 µM, first compound 0.316 µM
[28] = second compound 3.16 µM, first compound 1 µM
[29] = second compound 3.16 µM, first compound 3.16 µM
[30] = second compound 3.16 µM, first compound 10 µM
[31] = second compound 10 µM, first compound 0.0316 µM
[32] = second compound 10 µM, first compound 0.1 µM
[33] = second compound 10 µM, first compound 0.316 µM
[34] = second compound 10 µM, first compound 1 µM
[35] = second compound 10 µM, first compound 3.16 µM
[36] = second compound 10 µM, first compound 10 µM

CC1COCCN1c1cc(-c2ccnn2C)c2ccnc(-c3ccn[nH]3)c2n1 (stereo not drawn) + CNCc1ccccc1-c1csc(C(C)Nc2nc(C)nc3cc(OC)c(OC)cc23)c1
3000 nM: IC50 (second compound 0.1 µM)
active: viability, T/C (second compound 10 µM, first compound 0.00949 µM) 0.34% | viability, T/C (second compound 10 µM, first compound 0.03 µM) 0.43% | viability, T/C (second compound 10 µM, first compound 0.0949 µM) 0.45% | viability, T/C (second compound 10 µM, first compound 0.3 µM) 0.45% | viability, T/C (second compound 10 µM, first compound 0.949 µM) 0.4% | viability, T/C (second compound 10 µM, first compound 3 µM) 0.37%
1260 nM: IC50 (second compound 1 µM)
> 3000 nM: IC50 (second compound 3.16 µM)
1770 nM: IC50 (second compound 0.316 µM)
inactive: viability, T/C (second compound 0.0316 µM, first compound 0.00949 µM) 102% | viability, T/C (second compound 0.0316 µM, first compound 0.03 µM) 96.5% | viability, T/C (second compound 0.0316 µM, first compound 0.0949 µM) 87% | viability, T/C (second compound 0.0316 µM, first compound 0.3 µM) 74.9% | viability, T/C (second compound 0.0316 µM, first compound 0.949 µM) 54.1% | viability, T/C (second compound 0.0316 µM, first compound 3 µM) 43.8% | viability, T/C (second compound 0.1 µM, first compound 0.00949 µM) 88.4% | viability, T/C (second compound 0.1 µM, first compound 0.03 µM) 98.8% | viability, T/C (second compound 0.1 µM, first compound 0.0949 µM) 105% | viability, T/C (second compound 0.1 µM, first compound 0.3 µM) 78.2% | viability, T/C (second compound 0.1 µM, first compound 0.949 µM) 63.1% | viability, T/C (second compound 0.1 µM, first compound 3 µM) 48.3% | viability, T/C (second compound 0.316 µM, first compound 0.00949 µM) 97.5% | viability, T/C (second compound 0.316 µM, first compound 0.03 µM) 95.1% | viability, T/C (second compound 0.316 µM, first compound 0.0949 µM) 74% | viability, T/C (second compound 0.316 µM, first compound 0.3 µM) 66.7% | viability, T/C (second compound 0.316 µM, first compound 0.949 µM) 60.4% | viability, T/C (second compound 0.316 µM, first compound 3 µM) 42.8% | viability, T/C (second compound 1 µM, first compound 0.00949 µM) 85.8% | viability, T/C (second compound 1 µM, first compound 0.03 µM) 78% | viability, T/C (second compound 1 µM, first compound 0.0949 µM) 70.6% | viability, T/C (second compound 1 µM, first compound 0.3 µM) 67.1% | viability, T/C (second compound 1 µM, first compound 0.949 µM) 54.8% | viability, T/C (second compound 1 µM, first compound 3 µM) 37.7% | viability, T/C (second compound 3.16 µM, first compound 0.00949 µM) 94% | viability, T/C (second compound 3.16 µM, first compound 0.03 µM) 101% | viability, T/C (second compound 3.16 µM, first compound 0.0949 µM) 92.6% | viability, T/C (second compound 3.16 µM, first compound 0.3 µM) 81.8% | viability, T/C (second compound 3.16 µM, first compound 0.949 µM) 80.1% | viability, T/C (second compound 3.16 µM, first compound 3 µM) 67.6%
1610 nM: IC50 (second compound 0.0316 µM)
< 9.49 nM: IC50 (second compound 10 µM)

CC1OCC2(CCN(c3cnc(Sc4ccnc(N)c4Cl)c(N)n3)CC2)C1N (stereo not drawn) + CNCc1ccccc1-c1csc(C(C)Nc2nc(C)nc3cc(OC)c(OC)cc23)c1
6200 nM: IC50 (second compound 0.316 µM)
< 31.6 nM: IC50 (second compound 10 µM)
> 10000 nM: IC50 (second compound 0.0316 µM)
active: viability, T/C [30] 4.77% | viability, T/C [31] 0.35% | viability, T/C [32] 0.39% | viability, T/C [33] 0.53% | viability, T/C [34] 0.42% | viability, T/C [35] 0.4% | viability, T/C [36] 0.25%
inactive: viability, T/C [1] 90.2% | viability, T/C [2] 104% | viability, T/C [3] 86.8% | viability, T/C [4] 80.1% | viability, T/C [5] 83.1% | viability, T/C [6] 51.9% | viability, T/C [7] 94.5% | viability, T/C [8] 108% | viability, T/C [9] 90.4% | viability, T/C [10] 74.2% | viability, T/C [11] 68% | viability, T/C [12] 42.5% | viability, T/C [13] 90.2% | viability, T/C [14] 81.9% | viability, T/C [15] 78.2% | viability, T/C [16] 69.9% | viability, T/C [17] 70.3% | viability, T/C [18] 38.5% | viability, T/C [19] 74.6% | viability, T/C [20] 104% | viability, T/C [21] 79.1% | viability, T/C [22] 67.4% | viability, T/C [23] 68.8% | viability, T/C [24] 42.5% | viability, T/C [25] 90.8% | viability, T/C [26] 98.7% | viability, T/C [27] 82% | viability, T/C [28] 89.2% | viability, T/C [29] 78.9%
6910 nM: IC50 (second compound 0.1 µM) | IC50 (second compound 1 µM)
4950 nM: IC50 (second compound 3.16 µM)

CCNC(=O)CC1N=C(c2ccc(Cl)cc2)c2cc(OC)ccc2-n2c(C)nnc21 (stereo not drawn) + CNCc1ccccc1-c1csc(C(C)Nc2nc(C)nc3cc(OC)c(OC)cc23)c1
active: viability, T/C [31] 0.39% | viability, T/C [32] 0.34% | viability, T/C [33] 0.4% | viability, T/C [34] 0.52% | viability, T/C [35] 0.39% | viability, T/C [36] 0.43%
> 10000 nM: IC50 (second compound 0.0316 µM) | IC50 (second compound 0.1 µM) | IC50 (second compound 0.316 µM) | IC50 (second compound 1 µM) | IC50 (second compound 3.16 µM)
inactive: viability, T/C [1] 89.8% | viability, T/C [2] 96.4% | viability, T/C [3] 88% | viability, T/C [4] 106% | viability, T/C [5] 114% | viability, T/C [6] 115% | viability, T/C [7] 96.8% | viability, T/C [8] 91.3% | viability, T/C [9] 109% | viability, T/C [10] 92.6% | viability, T/C [11] 120% | viability, T/C [12] 122% | viability, T/C [13] 75.2% | viability, T/C [14] 86.6% | viability, T/C [15] 91.3% | viability, T/C [16] 109% | viability, T/C [17] 94.1% | viability, T/C [18] 93.7% | viability, T/C [19] 69.5% | viability, T/C [20] 105% | viability, T/C [21] 98.5% | viability, T/C [22] 99.4% | viability, T/C [23] 127% | viability, T/C [24] 99.1% | viability, T/C [25] 86.8% | viability, T/C [26] 93.6% | viability, T/C [27] 117% | viability, T/C [28] 97.3% | viability, T/C [29] 108% | viability, T/C [30] 114%
< 31.6 nM: IC50 (second compound 10 µM)

Cn1nccc1Nc1nccc(-c2cc3c(s2)C(C)(C)N(CCN2CCOCC2)C3=O)n1 + CNCc1ccccc1-c1csc(C(C)Nc2nc(C)nc3cc(OC)c(OC)cc23)c1
2590 nM: IC50 (second compound 0.316 µM)
< 31.6 nM: IC50 (second compound 10 µM)
2140 nM: IC50 (second compound 0.0316 µM)
inactive: viability, T/C [1] 94.5% | viability, T/C [2] 119% | viability, T/C [3] 117% | viability, T/C [4] 94.7% | viability, T/C [5] 26.9% | viability, T/C [7] 85.8% | viability, T/C [8] 103% | viability, T/C [9] 105% | viability, T/C [10] 110% | viability, T/C [11] 36.7% | viability, T/C [13] 88.2% | viability, T/C [14] 96.1% | viability, T/C [15] 103% | viability, T/C [16] 111% | viability, T/C [17] 39.6% | viability, T/C [19] 83% | viability, T/C [20] 90.5% | viability, T/C [21] 103% | viability, T/C [22] 96.7% | viability, T/C [23] 36.2% | viability, T/C [25] 102% | viability, T/C [26] 135% | viability, T/C [27] 128% | viability, T/C [28] 99.9% | viability, T/C [29] 15.4%
2490 nM: IC50 (second compound 0.1 µM)
1970 nM: IC50 (second compound 3.16 µM)
active: viability, T/C [6] 3.31% | viability, T/C [12] 3.17% | viability, T/C [18] 1.89% | viability, T/C [24] 0.95% | viability, T/C [30] 0.23% | viability, T/C [31] 0.35% | viability, T/C [32] 0.4% | viability, T/C [33] 0.48% | viability, T/C [34] 0.37% | viability, T/C [35] 0.37% | viability, T/C [36] 0.19%
2390 nM: IC50 (second compound 1 µM)
